Results taken from patent US20060069132A1, “Azolecarboxamide herbicides” (priority 2004, published 2006).

Columns and labels:
giant foxtail [1] = experiment: Test A pre-/postemergence herbicide test; format: in vivo, Setaria faberi; conditions: for Plant response rating, Foxtail, Giant: Postemergence; for Foxtail, Giant plant response rating: Preemergence
Outline: (§1)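 Visual injury rating on a 0–100 scale (0 no effect, 100 complete control) versus untreated controls, about ten days after treatment in greenhouse. Pre: directed soil spray onto seeded sandy loam. Post: spray to runoff on plants 2–10 cm tall at one- to two-leaf stage.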

barnyardgrass = experiment: Test A pre-/postemergence herbicide test; format: in vivo, Echinochloa crus-galli; conditions: for Plant response rating, Barnyardgrass: Postemergence; for Barnyardgrass plant response rating: Preemergence
Outline: as §1

large crabgrass [2] = experiment: Test A pre-/postemergence herbicide test; format: in vivo, Digitaria sanguinalis; conditions: for Plant response rating, Crabgrass, Large: Postemergence; for Crabgrass, Large plant response rating: Preemergence
Outline: as §1

soybean = experiment: Test C pre-/postemergence herbicide test; format: in vivo, Glycine max; conditions: for Plant response rating, Soybean: scale 0 to 100
Outline: (§2)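 Pre- and postemergence application, solvent/surfactant formulation; post at 1- to 4-leaf stage (2–18 cm). Greenhouse 12–14 d. Visual rating vs controls, 0 = no effect, 100 = complete control.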

kochia = experiment: Test C pre-/postemergence herbicide test; format: in vivo, Kochia scoparia
Outline: as §2

[3] = tested on: common (oilseed) sunflower; experiment: Test C pre-/postemergence herbicide test; format: in vivo, Helianthus annuus; conditions: preemergence
Outline: as §2

lambsquarters = experiment: Test C pre-/postemergence herbicide test; format: in vivo, Chenopodium album
Outline: as §2

bermudagrass = experiment: Test C pre-/postemergence herbicide test; format: in vivo, Cynodon dactylon
Outline: as §2

giant foxtail [4] = experiment: Test C pre-/postemergence herbicide test; format: in vivo, Setaria faberi
Outline: as §2

large crabgrass [5] = experiment: Test C pre-/postemergence herbicide test; format: in vivo, Digitaria sanguinalis
Outline: as §2

[6] = 500 g ai/ha, 0 to 100 scale, 0 no effect, 100 complete control
[7] = 2000 g ai/ha, 0 to 100 scale, 0 no effect, 100 complete control
[8] = 500 g ai/ha, visual rating, 0 to 100 scale (0 no effect, 100 complete control)
[9] = 31 g ai/ha, preemergence, scale 0 to 100
[10] = 125 g ai/ha, scale 0-100, preemergence
[11] = Postemergence, 125 g ai/ha, scale 0 to 100, 0 no effect, 100 complete control
[12] = postemergence, 31 g ai/ha, scale 0 to 100
[13] = postemergence, 62 g ai/ha, scale 0 to 100

## C=Cn1nc(C(C)(C)C)cc1C(=O)Nc1cccc(C(=O)NCC)c1 [Compound 33]
Giant foxtail [1]; [6]
  Plant response rating, Foxtail, Giant: 70
Giant foxtail [1]; [7]
  Plant response rating, Foxtail, Giant: 85
  Foxtail, Giant plant response rating: 95
Giant foxtail [1]; [8]
  Foxtail, Giant plant response rating: 80
barnyardgrass; [6]
  Plant response rating, Barnyardgrass: 75
barnyardgrass; [7]
  Plant response rating, Barnyardgrass: 90
  Barnyardgrass plant response rating: 80
barnyardgrass; [8]
  Barnyardgrass plant response rating: 55
Large crabgrass [2]; [6]
  Plant response rating, Crabgrass, Large: 65
Large crabgrass [2]; [7]
  Plant response rating, Crabgrass, Large: 85
  Crabgrass, Large plant response rating: 95
Large crabgrass [2]; [8]
  Crabgrass, Large plant response rating: 90
soybean; 31 g ai/ha, preemergence
  Plant response rating, Soybean: 0
soybean; 62 g ai/ha, preemergence
  Plant response rating (0 = no effect, 100 = complete control), Soybean: 0
soybean; postemergence, 125 g ai/ha
  Plant response rating, Soybean: 90
soybean; postemergence, 31 g ai/ha
  Plant response rating, Soybean: 80
soybean; postemergence, 62 g ai/ha
  Plant response rating, Soybean: 80
kochia; [9]
  Plant response rating, Kochia: 80
kochia; 62 g ai/ha, preemergence
  Plant response rating (0 = no effect, 100 = complete control), Kochia: 100
kochia; [10]
  Plant response rating, Kochia: 100
kochia; [11]
  Plant response rating, Kochia: 90
kochia; [12]
  Plant response rating, Kochia: 60
kochia; [13]
  Plant response rating, Kochia: 90
[3]; 31 g ai/ha, scale 0 to 100
  Plant response rating, Sunflower: 0
[3]; 62 g ai/ha
  Plant response rating (0 = no effect, 100 = complete control), Sunflower: 0
lambsquarters; [9]
  Plant response rating, Lambsquarters: 80
lambsquarters; 62 g ai/ha, preemergence
  Plant response rating (0 = no effect, 100 = complete control), Lambsquarters: 100
lambsquarters; [10]
  Plant response rating, Lambsquarters: 100
lambsquarters; postemergence, 125 g ai/ha, scale 0 to 100
  Plant response rating, Lambsquarters: 90
lambsquarters; [12]
  Plant response rating, Lambsquarters: 90
lambsquarters; [13]
  Plant response rating, Lambsquarters: 90
bermudagrass; 16 g ai/ha, scale 0 to 100, 0 no effect, 100 complete control, last section of Table C (species set of preemergence test)
  Plant response rating, Bermudagrass: 30
bermudagrass; [9]
  Plant response rating, Bermudagrass: 50
bermudagrass; 62 g ai/ha, preemergence
  Plant response rating (0 = no effect, 100 = complete control), Bermudagrass: 80
bermudagrass; [10]
  Plant response rating, Bermudagrass: 90
bermudagrass; [11]
  Plant response rating, Bermudagrass: 30
bermudagrass; postemergence, 16 g ai/ha, scale 0 to 100
  Plant response rating, Bermudagrass: 0
bermudagrass; [12]
  Plant response rating, Bermudagrass: 20
bermudagrass; [13]
  Plant response rating, Bermudagrass: 20
Giant foxtail [4]; [9]
  Plant response rating, Foxtail, Giant: 10
Giant foxtail [4]; 62 g ai/ha, preemergence
  Plant response rating (0 = no effect, 100 = complete control), Foxtail, Giant: 20
Giant foxtail [4]; [10]
  Plant response rating, Foxtail, Giant: 60
Giant foxtail [4]; [11]
  Plant response rating, Foxtail, Giant: 30
Giant foxtail [4]; [12]
  Plant response rating, Foxtail, Giant: 30
Giant foxtail [4]; [13]
  Plant response rating, Foxtail, Giant: 30
Large crabgrass [5]; [9]
  Plant response rating, Crabgrass, Large: 90
Large crabgrass [5]; 62 g ai/ha, preemergence
  Plant response rating (0 = no effect, 100 = complete control), Crabgrass, Large: 100
Large crabgrass [5]; [10]
  Plant response rating, Crabgrass, Large: 100
Large crabgrass [5]; [11]
  Plant response rating, Crabgrass, Large: 50
Large crabgrass [5]; [12]
  Plant response rating, Crabgrass, Large: 40
